This is an account of results in patent publication US10385024B2, “Compounds and methods for inhibiting NHE-mediated antiport in the treatment of disorders associated with fluid retention or salt overload and gastrointestinal tract disorders” (Ardelyx, Inc., priority 2012, dated 2019).

A word on the AUC: it is the area under the concentration-time curve, a measure of exposure. By Cmax is commonly meant the highest concentration seen after dosing.

One series addresses T1, human NHE-3 (Homo sapiens, UniProt P48764).
T1 construct: expressed in transfected cells; host or cells: Opossum kidney (OK) cells (ATCC), transfected by electroporation
T1 sequence (P48764 26-834): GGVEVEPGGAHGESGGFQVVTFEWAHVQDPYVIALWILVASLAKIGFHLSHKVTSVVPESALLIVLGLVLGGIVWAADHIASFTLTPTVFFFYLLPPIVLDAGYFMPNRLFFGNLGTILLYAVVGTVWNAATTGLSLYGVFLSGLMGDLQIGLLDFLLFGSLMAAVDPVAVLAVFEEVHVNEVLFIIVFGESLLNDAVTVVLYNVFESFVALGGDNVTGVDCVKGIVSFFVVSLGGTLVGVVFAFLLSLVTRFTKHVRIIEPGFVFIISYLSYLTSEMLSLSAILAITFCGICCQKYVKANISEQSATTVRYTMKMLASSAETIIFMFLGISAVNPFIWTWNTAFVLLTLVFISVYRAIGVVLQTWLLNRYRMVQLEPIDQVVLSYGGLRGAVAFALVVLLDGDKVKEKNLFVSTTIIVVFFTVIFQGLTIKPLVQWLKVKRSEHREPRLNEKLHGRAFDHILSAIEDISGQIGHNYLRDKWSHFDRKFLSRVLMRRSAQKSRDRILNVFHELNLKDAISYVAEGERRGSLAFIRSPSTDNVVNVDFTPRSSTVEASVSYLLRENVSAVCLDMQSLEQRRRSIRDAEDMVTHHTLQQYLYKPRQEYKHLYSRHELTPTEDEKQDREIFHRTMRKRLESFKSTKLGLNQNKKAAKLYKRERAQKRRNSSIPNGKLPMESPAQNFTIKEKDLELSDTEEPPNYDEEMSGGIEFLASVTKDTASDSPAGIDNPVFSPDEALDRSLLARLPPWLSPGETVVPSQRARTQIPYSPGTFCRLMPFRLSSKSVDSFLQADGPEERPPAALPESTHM
The experiment in a line: Cell-based assay of NHE-3 activity (human NHE3 inhibition assay). The note with it: OK cells with human NHE-3 gene, BCECF pH dye, 0-30 μM test compound. Put shortly: (§1)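 Opossum kidney cells electroporated with rat or human NHE-3, loaded with 5 μM BCECF-AM in NH4Cl-HEPES pH 7.4 for 30 min at RT, then acidified 10 min in Na+-free choline HEPES. Na+-dependent pH recovery rates from BCECF fluorescence, averaged over ≥2 replicates, gave pIC50.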

The nature of series [1]: Pharmacokinetic evaluation in bile. Format: in vivo, Sprague-Dawley rats. The note with it: bile duct cannulated rats, oral gavage, nominal dose 30 mg/kg, bile collected over 24 h, mean of n=3. Here is the method: Bile duct cannulated (BDC) Sprague-Dawley rats were dosed with test compounds by oral gavage and a single aliquot of bile was collected via cannula over the 24 h following dosing. Bile samples were treated with acetonitrile and precipitated proteins were removed by centrifugation. Some compounds required liquid-liquid extraction using MTBE. After centrifugation, samples were diluted as appropriate in mobile phase and analyzed by LC-MS/MS. The concentrations of compounds in bile were determined by interpolation from a standard calibration curve prepared in rat bile from untreated BDC rats. Accurate recovery of quality control samples was confirmed to accept each analytical run. Concentration in bile is reported in nM and represents the mean result from n=3 rats.

A further series is described as follows: Fecal recovery. Format: in vivo, Sprague Dawley rats. Conditions: male, Sprague-Dawley, faeces; rat, 1 mg/kg oral gavage, collection time 48 h. As for the experimental part:
Three male Sprague Dawley rats were administered 1 mg/kg test compound by oral gavage. Feces were collected from study animals from 0-48 or 0-72 hours after dosing, dried by lyophilization, and homogenized. Replicate aliquots of 40-60 mg each were subjected to extraction/protein precipitation with 7:1 acetonitrile:water and centrifuged. Supernatants were diluted 1:10 in 50:50 acetonitrile:water prior to analysis by LC-MS/MS. Compound concentrations, determined by interpolation from a standard calibration curve prepared in blank feces matrix, were converted to the percentage of dosed material recovered by taking into account the total collected fecal matter. The percent recovery for each rat was reported as the mean of the calculations from replicate samples. The overall percent recovery (Fecal Recovery [%]) was reported as the mean percent recovery from three rats. Accurate quality control sample recoveries were confirmed in each run, and extraction efficiency was periodically verified.

Series [2] deals with T2, Rat NHE-3 (Rattus norvegicus, UniProt P26433).
T2 construct: expressed in transfected cells; host or cells: Opossum kidney (OK) cells (ATCC), transfected by electroporation
T2 sequence (P26433 29-831): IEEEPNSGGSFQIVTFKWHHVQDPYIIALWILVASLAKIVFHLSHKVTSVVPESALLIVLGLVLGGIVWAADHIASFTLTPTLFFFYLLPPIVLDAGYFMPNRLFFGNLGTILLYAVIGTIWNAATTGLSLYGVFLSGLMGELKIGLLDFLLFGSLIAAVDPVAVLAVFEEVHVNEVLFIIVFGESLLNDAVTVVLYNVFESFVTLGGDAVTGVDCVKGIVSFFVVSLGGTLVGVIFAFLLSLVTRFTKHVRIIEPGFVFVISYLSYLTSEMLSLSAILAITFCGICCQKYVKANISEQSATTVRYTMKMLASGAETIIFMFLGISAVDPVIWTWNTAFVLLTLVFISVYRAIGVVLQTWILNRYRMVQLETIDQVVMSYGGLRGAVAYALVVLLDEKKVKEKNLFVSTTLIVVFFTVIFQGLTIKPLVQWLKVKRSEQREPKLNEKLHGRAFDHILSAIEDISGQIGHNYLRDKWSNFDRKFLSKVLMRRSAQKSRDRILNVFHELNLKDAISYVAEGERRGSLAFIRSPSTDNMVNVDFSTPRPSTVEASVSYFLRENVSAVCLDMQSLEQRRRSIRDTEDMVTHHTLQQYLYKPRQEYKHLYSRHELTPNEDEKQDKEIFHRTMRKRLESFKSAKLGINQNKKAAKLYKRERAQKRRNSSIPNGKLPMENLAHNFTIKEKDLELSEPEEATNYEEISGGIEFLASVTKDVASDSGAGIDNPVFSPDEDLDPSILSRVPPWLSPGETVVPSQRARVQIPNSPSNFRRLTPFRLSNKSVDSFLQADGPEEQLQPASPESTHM
The experiment in a line: Cell-based assay of NHE-3 activity (rat NHE-3 prompt inhibition). The note with it: OK cells with rat NHE-3 gene, compound present during pH recovery. Put shortly:
as §1

Series [3] concerns the target T2, Rat NHE-3. The series can be described thus: Cell-based assay of NHE-3 activity (persistent inhibition, after washout). The note with it: OK cells with rat NHE-3 gene, 60 min incubation, recovery initiated 40 min after compound washout. Put shortly: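 OK cells transiently expressing rat NHE-3 were exposed to 0-30 μM compound in NaCl-HEPES pH 7.4 for 60 min, then washed free of drug before NH4Cl/BCECF-AM loading and acid-loading in Na+-free choline buffer. Na+-dependent pH recovery rates (mean of ≥2 replicates) gave pIC50.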

The nature of a further series: Plasma PK. Format: in vivo, Sprague-Dawley rats. The note with it: Sprague-Dawley; rat plasma, oral gavage, nominal dose 30 mg/kg, mean of n=3, sampling 0.5-4 h. As for the experimental part:
Sprague-Dawley rats (n=3) were dosed with test compounds by oral gavage. Blood was collected at 0.5, 1, 2 and 4 h via retro-orbital bleeds and processed to plasma using K2EDTA as an anticoagulant. Plasma samples were treated with acetonitrile containing an internal standard and precipitated proteins were removed by centrifugation. Supernatants were analyzed by LC-MS/MS and compound concentrations were determined by interpolation from a calibration curve prepared in plasma. Accurate recovery of quality control samples were confirmed to accept each analytical run.

Some results are limits rather than exact numbers.

Consider `CN1Cc2c(Cl)cc(Cl)cc2[C@H](c2cccc(S(=O)(=O)NCCOCCOCCNC(=O)NCCC(N)(CCNC(=O)NCCOCCOCCNS(=O)(=O)c3cccc([C@@H]4CN(C)Cc5c(Cl)cc(Cl)cc54)c3)CCNC(=O)NCCOCCOCCNS(=O)(=O)c3cccc([C@@H]4CN(C)Cc5c(Cl)cc(Cl)cc54)c3)c2)C1` [Example 46, (S)—N,N′-(14-amino-14-(13-(3-((S)-6,8-dichloro-2-methyl-1,2,3,4-tetrahydroisoquinolin-4-yl)phenylsulfonamido)-4-oxo-8,11-dioxa-3,5-diazatridecyl)-10,18-dioxo-3,6,22,25-tetraoxa-9,11,17,19-tetraazaheptacosane-1,27-diyl)bis(3-((S)-6,8-dichloro-2-methyl-1,2,3,4-tetrahydroisoquinolin-4-yl)benzenesulfonamide)], for which the IC50 on human NHE-3 (read-out: Human NHE3 pIC50 (converted)), on Rat NHE-3 [2] (read-out: Rat NHE3 pIC50 (prompt) (converted)) and on Rat NHE-3 [3] (read-out: Rat NHE3 pIC50 (persistent) (converted)) was < 100 nM in each case. Also, the “Concentration in Bile” value in series [1] is 3 nM. Also, the dose excreted in “Fecal recovery” turned out to be 75.8%.

`CN1Cc2c(Cl)cc(Cl)cc2[C@H](c2cccc(S(=O)(=O)NCCOCCOCCOCCNC(=O)NCCN(CCNC(=O)NCCOCCOCCOCCNS(=O)(=O)c3cccc([C@@H]4CN(C)Cc5c(Cl)cc(Cl)cc54)c3)CCNC(=O)NCCOCCOCCOCCNS(=O)(=O)c3cccc([C@@H]4CN(C)Cc5c(Cl)cc(Cl)cc54)c3)c2)C1` [Example 52]: the “Human NHE3 pIC50” value at human NHE-3 was “C (C NHE3 pIC50 > 7)”. For the same compound, on Rat NHE-3 [2], the “Rat NHE3 pIC50 (prompt)” value is listed as “B (B NHE3 pIC50 5-7)”. Further, at Rat NHE-3 [3], the “Rat NHE3 pIC50 (persistent)” value was “C (C NHE3 pIC50 > 7)”. Further, in the series “Plasma PK”, the area under the curve (AUC) was < 19 ng·h/mL and the Cmax was < 5 ng/mL.
